Measurements: ChEMBL document CHEMBL4725338, “Discovery of novel histone lysine methyltransferase G9a/GLP (EHMT2/1) inhibitors: Design, synthesis, and structure-activity relationships of 2,4-diamino-6-methylpyrimidines” (Bioorg Med Chem Lett, 2020)
Values after ≈ are worked out from the molar mass of the structure shown.

What was measured:
CYP2D6 = CYP2D6 (Homo sapiens, UniProt P10635); assay: Inhibition of CYP2D6 (unknown origin) at 10 uM relative to control; format: ADME
[1] = Cmax in mouse at 10 mg/kg, po; format: ADME, organism-based; parameters: route oral, dose 10 mg/kg; settings: in vivo
[2] = Aqueous solubility of the compound in pH 6.8 JP2 fluid; format: physicochemical
[3] = Half-life in mouse at 1 mg/kg, iv; format: ADME, organism-based; settings: in vivo
[4] = Initial plasma concentration in mouse at 1 mg/kg, iv; format: ADME, organism-based
[5] = molecular target: T1, Histone-lysine N-methyltransferase EHMT1 (Homo sapiens, UniProt Q9H9B1); assay: Inhibition of GLP (unknown origin)
T1 sequence (Q9H9B1 whole entry): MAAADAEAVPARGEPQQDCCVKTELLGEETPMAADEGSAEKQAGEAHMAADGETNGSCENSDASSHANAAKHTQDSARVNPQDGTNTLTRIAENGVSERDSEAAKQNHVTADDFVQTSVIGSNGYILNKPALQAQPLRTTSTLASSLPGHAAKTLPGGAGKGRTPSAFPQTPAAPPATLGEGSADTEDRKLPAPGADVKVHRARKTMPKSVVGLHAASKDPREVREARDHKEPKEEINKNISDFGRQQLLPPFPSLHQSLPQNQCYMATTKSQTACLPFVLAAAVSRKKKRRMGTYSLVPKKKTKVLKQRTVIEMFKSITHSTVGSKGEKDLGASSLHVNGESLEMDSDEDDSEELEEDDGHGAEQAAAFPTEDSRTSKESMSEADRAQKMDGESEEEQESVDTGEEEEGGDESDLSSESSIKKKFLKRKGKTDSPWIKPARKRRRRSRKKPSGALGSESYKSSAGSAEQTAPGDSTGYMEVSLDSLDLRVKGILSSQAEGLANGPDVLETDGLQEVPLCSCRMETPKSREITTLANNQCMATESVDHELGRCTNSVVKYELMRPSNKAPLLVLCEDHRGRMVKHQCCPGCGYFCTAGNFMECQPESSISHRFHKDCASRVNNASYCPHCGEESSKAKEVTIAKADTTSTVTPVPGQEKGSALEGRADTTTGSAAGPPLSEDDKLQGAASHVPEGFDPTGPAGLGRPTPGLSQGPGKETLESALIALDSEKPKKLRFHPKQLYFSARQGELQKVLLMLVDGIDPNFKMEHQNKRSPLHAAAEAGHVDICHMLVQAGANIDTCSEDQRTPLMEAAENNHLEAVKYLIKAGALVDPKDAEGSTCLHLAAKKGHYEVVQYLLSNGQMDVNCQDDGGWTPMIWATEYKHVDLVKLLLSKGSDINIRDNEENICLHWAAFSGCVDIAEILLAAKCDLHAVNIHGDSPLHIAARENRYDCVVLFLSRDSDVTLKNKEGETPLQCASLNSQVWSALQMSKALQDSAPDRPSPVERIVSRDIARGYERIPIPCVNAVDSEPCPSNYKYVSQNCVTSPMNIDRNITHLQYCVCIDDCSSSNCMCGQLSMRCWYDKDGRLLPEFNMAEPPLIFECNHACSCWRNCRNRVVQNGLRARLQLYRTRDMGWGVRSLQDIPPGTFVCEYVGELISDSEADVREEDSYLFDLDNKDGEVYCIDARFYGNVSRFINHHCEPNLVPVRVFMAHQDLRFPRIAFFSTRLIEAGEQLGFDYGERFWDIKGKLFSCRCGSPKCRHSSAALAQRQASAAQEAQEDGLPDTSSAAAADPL

[6] = Intrinsic clearance in mouse at 1 mg/kg, iv; format: ADME, organism-based; settings: in vivo
[7] = Metabolic stability in human liver microsomes assessed as compound remaining at 0.5 mg/mL incubated for 0.5 hrs; format: ADME, Microsome; settings: read-out: Stabilty
[8] = Volume of distribution at steady state in mouse at 1 mg/kg, iv; format: ADME, organism-based; settings: in vivo, read-out: Vdss
[9] = molecular target: T2, Histone-lysine N-methyltransferase EHMT2 (Homo sapiens, UniProt Q96KQ7); assay: Inhibition G9a (unknown origin)
T2 sequence (Q96KQ7 whole entry): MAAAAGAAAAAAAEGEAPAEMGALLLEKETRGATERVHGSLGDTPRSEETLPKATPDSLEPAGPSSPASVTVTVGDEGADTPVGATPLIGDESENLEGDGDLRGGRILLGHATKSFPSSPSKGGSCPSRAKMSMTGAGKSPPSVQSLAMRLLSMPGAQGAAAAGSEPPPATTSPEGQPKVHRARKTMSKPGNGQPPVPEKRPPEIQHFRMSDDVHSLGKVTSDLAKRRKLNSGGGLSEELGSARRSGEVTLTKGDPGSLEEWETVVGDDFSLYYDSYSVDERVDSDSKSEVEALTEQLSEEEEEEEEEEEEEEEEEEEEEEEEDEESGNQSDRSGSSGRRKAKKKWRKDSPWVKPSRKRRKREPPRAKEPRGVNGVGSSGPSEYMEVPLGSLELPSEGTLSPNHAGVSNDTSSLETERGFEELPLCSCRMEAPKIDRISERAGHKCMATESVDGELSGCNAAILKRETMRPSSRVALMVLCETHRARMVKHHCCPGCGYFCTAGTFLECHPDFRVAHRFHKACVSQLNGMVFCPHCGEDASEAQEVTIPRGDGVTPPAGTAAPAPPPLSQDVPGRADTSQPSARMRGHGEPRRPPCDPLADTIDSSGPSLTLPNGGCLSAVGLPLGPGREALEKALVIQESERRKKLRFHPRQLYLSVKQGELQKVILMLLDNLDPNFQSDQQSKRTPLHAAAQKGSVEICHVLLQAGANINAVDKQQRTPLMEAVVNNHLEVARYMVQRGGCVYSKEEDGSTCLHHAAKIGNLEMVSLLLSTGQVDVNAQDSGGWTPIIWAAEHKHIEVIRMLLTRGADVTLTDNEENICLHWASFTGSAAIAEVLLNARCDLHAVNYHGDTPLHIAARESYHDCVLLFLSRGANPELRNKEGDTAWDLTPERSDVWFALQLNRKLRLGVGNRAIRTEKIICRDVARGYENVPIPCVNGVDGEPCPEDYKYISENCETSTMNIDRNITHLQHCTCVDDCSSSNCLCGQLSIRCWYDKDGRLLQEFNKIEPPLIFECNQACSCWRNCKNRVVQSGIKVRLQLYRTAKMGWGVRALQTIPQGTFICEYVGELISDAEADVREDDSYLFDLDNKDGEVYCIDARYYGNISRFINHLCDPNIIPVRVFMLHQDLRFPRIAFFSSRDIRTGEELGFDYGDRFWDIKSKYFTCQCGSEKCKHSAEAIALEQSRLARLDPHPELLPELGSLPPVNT

[10] = Tmax in mouse at 10 mg/kg, po; format: ADME, organism-based; settings: in vivo

CYP2D6, sequence (P10635 whole entry): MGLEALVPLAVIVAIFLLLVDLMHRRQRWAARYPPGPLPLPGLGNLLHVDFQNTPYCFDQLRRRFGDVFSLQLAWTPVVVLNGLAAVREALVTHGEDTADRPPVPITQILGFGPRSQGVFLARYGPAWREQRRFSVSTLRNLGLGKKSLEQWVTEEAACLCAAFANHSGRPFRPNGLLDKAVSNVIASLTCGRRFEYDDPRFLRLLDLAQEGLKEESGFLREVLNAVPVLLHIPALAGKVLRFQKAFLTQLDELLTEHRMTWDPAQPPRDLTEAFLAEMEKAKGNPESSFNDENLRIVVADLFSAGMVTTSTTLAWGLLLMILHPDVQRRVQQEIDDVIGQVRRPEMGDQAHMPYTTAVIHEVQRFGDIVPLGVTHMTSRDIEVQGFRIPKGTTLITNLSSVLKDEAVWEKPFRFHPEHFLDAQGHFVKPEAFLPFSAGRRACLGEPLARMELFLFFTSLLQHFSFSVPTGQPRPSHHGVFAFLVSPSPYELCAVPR

| SMILES | inhibition at 10 µM (CYP2D6) [%] | Cmax [1] [nM] | solubility [2] [µg/mL] | half-life [3] [h] | C0 [4] [nM] | IC50 [5] [nM] | CL [6] [mL/min/kg] | remaining at 0.5 h [7] [%] | Vd [8] [L/kg] | IC50 [9] [nM] | Tmax [10] [h] |
| --- | --- | --- | --- | --- | --- | --- | --- | --- | --- | --- | --- |
| CNc1cc(C)nc(Nc2ccc(OC)c(OCCCN3CCCC3)c2)n1 | 8 | 220 | 590 (≈ 1590 µM) | 4 | 260 | 185 | 27.4 | 99 | 8.3 | 16.9 | 5.5 |
| CNc1cc(C)nc(Nc2ccc(OC)c(C3=CCNCCC3)c2)n1 | 3 | 450 | 640 (≈ 1890 µM) | 7 | 400 | 32.3 | 62.9 | 96 | 24.6 | 4.31 | 2 |
